Patent US10577363B2, “Substituted piperidine compounds” (EPIZYME, INC., priority 2014, dated 2020)

Key:
SMYD3 [1] = target: T1, SMYD3 (Homo sapiens (Human), UniProt Q9H7B4); test: SMYD3 cell assay (Trimethyl-MEKK2 In-Cell Western in 293T/17 cells); assay type: cell-based; conditions: read-out: SMYD3 Cell IC50*
Procedure, shortened: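 In-Cell Western ratio of trimethyl-Lys260 MEKK2 to anti-flag signal; percent inhibition from DMSO and maximum-inhibition controls, IC50 by non-linear regression, triplicates.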

SMYD3 [2] = target: T1, SMYD3; test: SMYD3 biochemical assay (SPA, 3H-SAM methylation of MEKK2 protein substrate); conditions: read-out: SMYD3 Biochem IC50*
Procedure, shortened: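 Native full-length human SMYD3 (E. coli-expressed, tags removed) was preincubated with compound for 30 min at room temperature in 25 mM Tris-Cl pH 8.0, 1 mM TCEP, 0.005% BSG, 0.005% Tween 20. Reaction was started with 3H-SAM plus GST-MEKK2, quenched with 100 uM unlabeled SAM, and read by SPA scintillation counting.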

T1 sequence (Q9H7B4 whole entry): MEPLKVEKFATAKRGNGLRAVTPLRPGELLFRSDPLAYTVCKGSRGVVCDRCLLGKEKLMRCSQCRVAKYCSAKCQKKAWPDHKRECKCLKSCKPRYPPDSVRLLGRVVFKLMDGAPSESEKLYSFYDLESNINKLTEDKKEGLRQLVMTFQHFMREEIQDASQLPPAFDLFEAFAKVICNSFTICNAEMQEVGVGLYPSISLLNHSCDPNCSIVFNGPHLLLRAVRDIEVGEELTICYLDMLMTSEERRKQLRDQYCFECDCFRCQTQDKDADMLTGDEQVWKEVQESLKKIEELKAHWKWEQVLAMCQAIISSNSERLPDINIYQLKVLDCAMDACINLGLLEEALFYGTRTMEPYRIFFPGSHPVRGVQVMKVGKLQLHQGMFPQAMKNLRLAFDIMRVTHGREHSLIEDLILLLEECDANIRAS

Compound	IC50 (SMYD3 [1]) [nM]	IC50 (SMYD3 [2]) [nM]
CCC[C@H]1C[C@@H](NC(=O)c2cc(C3CC3)on2)CCN1S(=O)(=O)CCCN [compound 806, N-((2S,4S)-1-((3-aminopropyl)sulfonyl)-2-propylpiperidin-4-yl)-5-cyclopropylisoxazole-3-carboxamide]	113	2.4
CN(C)[C@H]1CC[C@H](S(=O)(=O)N2[C@@H]3CC[C@H]2C[C@@H](NC(=O)c2cc(C4CC4)on2)C3)CC1 [compound 807, 5-cyclopropyl-N-((1R,3R,5S)-8-(((1r,4R)-4-(dimethylamino)cyclohexyl)sulfonyl)-8-azabicyclo[3.2.1]octan-3-yl)isoxazole-3-carboxamide]	85.7	2.44
C[C@H]1C[C@@H](NC(=O)c2cc(C3CC3)on2)CCN1S(=O)(=O)N1CCC(NCCO)CC1 [compound 808, 5-cyclopropyl-N-((2S,4S)-1-((4-((2-hydroxyethyl)amino)piperidin-1-yl)sulfonyl)-2-methylpiperidin-4-yl)isoxazole-3-carboxamide]	36.8	2.47
CC(C)CN1CCC(CS(=O)(=O)N2[C@@H]3CC[C@H]2C[C@@H](NC(=O)c2cc(C4CC4)on2)C3)CC1 [compound 809, 5-cyclopropyl-N-((1R,3r,5S)-8-(((1-isobutylpiperidin-4-yl)methyl)sulfonyl)-8-azabicyclo[3.2.1]octan-3-yl)isoxazole-3-carboxamide]	42.7	2.49
O=C(N[C@H]1C[C@H]2CC[C@@H](C1)N2S(=O)(=O)N1CCC(NCc2ccccc2)CC1)c1cc(C2CC2)on1 [compound 810, N-((1R,3r,5S)-8-((4-(benzylamino)piperidin-1-yl)sulfonyl)-8-azabicyclo[3.2.1]octan-3-yl)-5-cyclopropylisoxazole-3-carboxamide]	72.2	2.53
CCc1cc(C(=O)N[C@H]2CCN(S(=O)(=O)c3ccc(C(C)(C)N)cc3)[C@@H](C)C2)no1 [compound 811, N-((2S,4S)-1-((4-(2-aminopropan-2-yl)phenyl)sulfonyl)-2-methylpiperidin-4-yl)-5-ethylisoxazole-3-carboxamide]	33.6	2.58
CNC1CCN(S(=O)(=O)N2[C@@H]3CC[C@H]2C[C@@H](NC(=O)c2cc(C4CC4)on2)C3)CC1 [compound 812, 5-cyclopropyl-N-((1R,3r,5S)-8-((4-(methylamino)piperidin-1-yl)sulfonyl)-8-azabicyclo[3.2.1]octan-3-yl)isoxazole-3-carboxamide]	41.1	2.65
C[C@H]1C[C@@H](NC(=O)c2cc(C3CC3)on2)CCN1S(=O)(=O)N1CCC2(CCN2)CC1 [compound 813, N-((2S,4S)-1-((1,7-diazaspiro[3.5]nonan-7-yl)sulfonyl)-2-methylpiperidin-4-yl)-5-cyclopropylisoxazole-3-carboxamide]	35.7	2.73
C[C@H]1C[C@@H](NC(=O)c2cc(C3CC3)on2)CCN1S(=O)(=O)CC[C@H]1CCN(C)C1 [compound 814, 5-cyclopropyl-N-((2S,4S)-2-methyl-1-((2-((R)-1-methylpyrrolidin-3-yl)ethyl)sulfonyl)piperidin-4-yl)isoxazole-3-carboxamide]	44.2	2.77
CCc1cc(C(=O)N[C@H]2C[C@H]3CC[C@@H](C2)N3S(=O)(=O)[C@H]2CC[C@@H](N)CC2)no1 [compound 815, N-((1R,3R,5S)-8-(((1s,4S)-4-aminocyclohexyl)sulfonyl)-8-azabicyclo[3.2.1]octan-3-yl)-5-ethylisoxazole-3-carboxamide]	52.6	2.78
C[C@@H](C1CCN(C)CC1)S(=O)(=O)N1[C@@H]2CC[C@H]1C[C@@H](NC(=O)c1cc(C3CC3)on1)C2 [compound 816, 5-cyclopropyl-N-((1R,3S,5S)-8-(((S)-1-(1-methylpiperidin-4-yl)ethyl)sulfonyl)-8-azabicyclo[3.2.1]octan-3-yl)isoxazole-3-carboxamide]	52.3	2.91
O=C(N[C@H]1C[C@H]2CC[C@@H](C1)N2S(=O)(=O)N1CC2CCC(C1)N2)c1cc(C2CC2)on1 [compound 817, N-((1R,3r,5S)-8-((3,8-diazabicyclo[3.2.1]octan-3-yl)sulfonyl)-8-azabicyclo[3.2.1]octan-3-yl)-5-cyclopropylisoxazole-3-carboxamide]	34.8	3.11
CC(C)CN1CCC2(CC1)CN(S(=O)(=O)N1[C@@H]3CC[C@H]1C[C@@H](NC(=O)c1cc(C4CC4)on1)C3)C2 [compound 818, 5-cyclopropyl-N-((1R,3r,5S)-8-((7-isobutyl-2,7-diazaspiro[3.5]nonan-2-yl)sulfonyl)-8-azabicyclo[3.2.1]octan-3-yl)isoxazole-3-carboxamide]	55.4	3.13
C[C@H]1C[C@@H](NC(=O)c2cc(C3CC3)on2)CCN1S(=O)(=O)C[C@@H]1CCC[C@@H](N)C1 [compound 819, N-((2S,4S)-1-((((1R,3R)-3-aminocyclohexyl)methyl)sulfonyl)-2-methylpiperidin-4-yl)-5-cyclopropylisoxazole-3-carboxamide]	124	3.2
CN(CCO)C1CCN(S(=O)(=O)N2[C@@H]3CC[C@H]2C[C@@H](NC(=O)c2cc(C4CC4)on2)C3)CC1 [compound 820, 5-cyclopropyl-N-((1R,3r,5S)-8-((4-((2-hydroxyethyl)(methyl)amino)piperidin-1-yl)sulfonyl)-8-azabicyclo[3.2.1]octan-3-yl)isoxazole-3-carboxamide]	57.4	3.27
CC(C)CCNC1CCN(S(=O)(=O)N2[C@@H]3CC[C@H]2C[C@@H](NC(=O)c2cc(C4CC4)on2)C3)CC1 [compound 821, 5-cyclopropyl-N-((1R,3r,5S)-8-((4-(isopentylamino)piperidin-1-yl)sulfonyl)-8-azabicyclo[3.2.1]octan-3-yl)isoxazole-3-carboxamide]	58.5	3.28
CCN1C2CCC1CN(S(=O)(=O)N1[C@@H]3CC[C@H]1C[C@@H](NC(=O)c1cc(C4CC4)on1)C3)C2 [compound 822, 5-cyclopropyl-N-((1R,3r,5S)-8-((8-ethyl-3,8-diazabicyclo[3.2.1]octan-3-yl)sulfonyl)-8-azabicyclo[3.2.1]octan-3-yl)isoxazole-3-carboxamide]	43.7	3.44
C[C@H]1C[C@@H](NC(=O)c2cc(C3CC3)on2)CCN1S(=O)(=O)CC1CCC(N(C)C)C1 (stereo partly drawn) [compound 823, 5-cyclopropyl-N-((2S,4S)-1-(((3-(dimethylamino)cyclopentyl)methyl)sulfonyl)-2-memylpiperidin-4-yl)isoxazole-3-carboxamide]	67.2	3.5
O=C(N[C@H]1C[C@H]2CC[C@@H](C1)N2S(=O)(=O)N1CC2(CCN(Cc3ccccc3)CC2)C1)c1cc(C2CC2)on1 [compound 824, N-((1R,3r,5S)-8-((7-benzyl-2,7-diazaspiro[3.5]nonan-2-yl)sulfonyl)-8-azabicyclo[3.2.1]octan-3-yl)-5-cyclopropylisoxazole-3-carboxamide]	80.4	3.87
COCCN[C@H]1CC[C@H](S(=O)(=O)N2[C@@H]3CC[C@H]2C[C@@H](NC(=O)c2cc(C4CC4)on2)C3)CC1 [compound 825, 5-cyclopropyl-N-((1R,3R,5S)-8-(((1r,4R)-4-((2-methoxyemyl)amino)cyclohexyl)sulfonyl)-8-azabicyclo[3.2.1]octan-3-yl)isoxazole-3-carboxamide]	55.3	3.91
